Legend:
[1] = molecular target: T1, CXCR-4 transfected U87 cell line (U87.CXCR4) (Homo sapiens, UniProt P61073); test: Intracellular CXCL-12-induced calcium mobilization assay (FLIPR); type: cell-based; conditions: U87.CXCR4 cells; CXCL-12 25-50 ng/mL; compounds added 15 minutes before; read-out: IC50 CXCL-12 Ca2+ flux U87.CXCR4+
T1 construct: expressed in transfected cells; host or cells: U87 cell line (U87.CXCR4)
Experimental: Intracellular calcium mobilization induced by chemokines orchemokine-derived peptides were evaluated using a calcium responsive fluorescent probe and a FLIPR system. The CXCR-4 transfected U87 cell line (U87.CXCR4) cells were seeded in gelatine-coated black-wall 96-well plates at 20,000 cells per well and incubated for 12 hours. Cells were then loaded with the fluorescent calcium probe Fluo-2 acetoxymethyl at 4 μM final concentration in assay buffer (Hanks' balanced salt solution with 20 mM HEPES buffer and 0.2% bovine serum albumin, pH 7.4) for 45 min at 37′C. The intracellular calcium mobilization induced by the CXCL-12 (25-50 ng/mL) was then measured at 37° C. by monitoring the fluorescence as a function of time in all the wells simultaneously using a fluorometric imaging plate reader (FLIPR Tetra, Molecular Devices).

[2] = molecular target: T2, Jurkat cells expressing CXCR4 (Homo sapiens, UniProt P61073); test: Chemokine (CXCL12-AF647) binding inhibition assay; conditions: CXCL12-AF647 25 ng/mL, read-out: IC50 CXCL-12 binding Jurkat
T2 construct: Jurkat cells expressing CXCR4; endogenous in cells; host or cells: Jurkat cells
Experimental: Jurkat cells expressing CXCR4 were washed once with assay buffer (Hanks' balanced salt solution with 20 mM HEPES buffer and 0.2% bovine serum albumin, pH 7.4) and then incubated for 15 min at room temperature with the test compounds diluted in assay buffer at dose-dependent concentrations. Subsequently, CXCL12-AF647 (25 ng/mL) was added to the compound-incubated cells. The cells were incubated for 30 min at room temperature. Thereafter, the cells were washed twice in assay buffer, fixed in 1% paraformaldehyde in PBS, and analyzed on the FL4 channel of a FACSCalibur flow cytometer equipped with a 635-nm red diode laser (Becton Dickinson, San Jose, Calif., USA).
The percentages of inhibition of CXCL12-AF647 binding were calculated according to the formula: [1−((MFI−MFINC)/(MFIPC−MFINC))]×100 where MFI is the mean fluorescence intensity of the cells incubated with CXCL12-AF647 in the presence of the inhibitor, MFINC is the mean fluorescence intensity measured in the negative control (i.e., autofluorescence of unlabeled cells), and MFIPC is the mean fluorescence intensity of the positive control (i.e., cells exposed to CXCL12-AF647 alone).

[3] = in vitro; conditions: human, Caco-2, pH 7.4
Experimental: The goal of this assay was to evaluate the intestinal absorption potential of drug candidates using Caco-2 cell lines.
Experimental Procedure • 1. Pre-warm Pre-warm HBSS Buffer in 37° C. water bath • 2. Sonicate Take compounds from −20° C., sonicate for a few minutes (no less than 1 minute) • 3. Solution preparation
For A-to-B Direction: • HBSS buffer with 0.3% DMSO and 5 μM LY: add 150 μL DMSO and 50 μL LY (5 mM) into 50 ml HBSS buffer (pH 7.4). • HBSS buffer with 0.1% DMSO and 5 μM LY: add 50 μL DMSO and 50 μL LY (5 mM) into 50 mL HBSS buffer (pH 7.4).
For B-to-A Direction: • HBSS buffer with 0.3% DMSO: add 150 μL DMSO into 50 ml HBSS buffer (pH 7.4). HBSS buffer with 0.1% DMSO: add 50 μL DMSO into 50 ml HBSS buffer (pH 7.4).
For A-to-B Direction: • Prepare HBSS buffer with 0.4% DMSO: add 200 μL DMSO into 50 ml HBSS buffer (pH 7.4).
For B-to-A Direction: • Prepare HBSS buffer with 0.4% DMSO and 5 μM LY: add 200 μL DMSO and 50 μL LY (5 mM) into 50 ml HBSS buffer (pH 7.4).
• 4. Measure TEER Take cell culture plate out of incubator, wash the cell monolayers with HBSS buffer, and then measure TEER values at Rm temperature. • 5. Centrifuge Centrifuge the compound solution (from step 3) at 4000 rpm for 5 min before loading to donor chambers. • 6. Dosing Add solution based on the volumes listed in the following table (make sure to take extra 100 μL of donor sample for T0 as Backup).
• 7. Apical LYTO samples To determine LY concentration in the apical chamber, take 100 μL sample from apical chambers into an opaque plate for LYTO. • 8. Pre-warm Pre-warm apical and basolateral plates at 37° C. for about 5 min, then begin transport by placing the apical plate onto basolateral plate. • 9. Incubation Keep the plates in incubator at 37° C. for 90 min. • 10.
• Prepare 1× solution: • 3 μL (20×)+57 μL of 0.4% DMSO HBSS+60 μL ACN with IS (Osalmid or Imipramine)—120 μL (1×) • 11. Transport termination Separate the apical plate from the basolateral plate after 90-min incubation. • 12. Measure LY Take 100 μL samples from basolateral plate to an opaque plate as LYT90. • 13. Measure LY concentrations for LYTO and LYT90 by Fluorometer (at excitation of 485 nm/emission of 535 nm). • 14.
Drug permeability: Papp=(VA/(Area×time))×([drug]accepter/(([drug]initial, donor)×Dilution Factor) • Where VA is the volume in the acceptor well, area is the surface area of the membrane and time is the total transport time in seconds.
For Millicell-24 Cell Culture Plates: surface area of the membrane=0.7 cm^2, VA=0.8 mL (A-to-B) or 0.4 mL (B-to-A)

T1 sequence (P61073 whole entry): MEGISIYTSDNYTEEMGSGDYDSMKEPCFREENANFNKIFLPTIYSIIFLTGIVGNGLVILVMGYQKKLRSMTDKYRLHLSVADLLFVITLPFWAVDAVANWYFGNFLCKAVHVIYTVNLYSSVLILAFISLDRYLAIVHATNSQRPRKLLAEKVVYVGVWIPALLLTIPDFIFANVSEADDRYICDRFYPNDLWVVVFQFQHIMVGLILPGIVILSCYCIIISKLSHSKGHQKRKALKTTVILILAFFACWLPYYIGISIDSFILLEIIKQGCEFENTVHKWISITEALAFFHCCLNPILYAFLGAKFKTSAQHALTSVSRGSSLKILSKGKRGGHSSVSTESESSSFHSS
T2 sequence (P61073 whole entry): as above

Structure (SMILES) | IC50 [1] | IC50 [2] | Papp A→B at 90 min, 10 μM [3] | Papp B→A at 90 min, 10 μM [3] | efflux ratio at 90 min, 10 μM [3]
Cc1cccnc1CN(CCC(N)=O)[C@H]1CCCc2cccnc21 [Compound I-23] | ≥ 1000 nM | 0.01 to 100 nM | 5 to 10 ×10⁻⁶ cm/s | > 10 ×10⁻⁶ cm/s | 10 to 30
NC(=O)CCN(Cc1ncccc1Cl)[C@H]1CCCc2cccnc21 [Compound I-24] | ≥ 1000 nM | 0.01 to 100 nM | > 10 ×10⁻⁶ cm/s | > 10 ×10⁻⁶ cm/s | 0.1 to 10
Cn1c(CN(CCc2c[nH]cn2)[C@H]2CCCc3cccnc32)nc2ccccc21 [Compound I-25] | 0.01 to 100 nM | 0.01 to 100 nM | < 5 ×10⁻⁶ cm/s | > 10 ×10⁻⁶ cm/s | 10 to 30
Cc1cccnc1CN(CCc1c[nH]cn1)[C@H]1CCCc2cccnc21 [Compound I-26] | ≥ 1000 nM | 0.01 to 100 nM | < 5 ×10⁻⁶ cm/s | > 10 ×10⁻⁶ cm/s | 10 to 30
Clc1cccnc1CN(CCc1c[nH]cn1)[C@H]1CCCc2cccnc21 [Compound I-27, (S)—N-(2-(1H-imidazol-4-yl)ethyl)-N-((3-chloropyridin-2-yl)methyl)-5,6,7,8-tetrahydroquinolin-8-amine] | ≥ 1000 nM | 0.01 to 100 nM | 5 to 10 ×10⁻⁶ cm/s | > 10 ×10⁻⁶ cm/s | 0.1 to 10
Clc1cccnc1CN(CCc1cnc[nH]1)Cc1ncccc1Cl [Compound I-28] | 100 to 1000 nM | 0.01 to 100 nM | > 10 ×10⁻⁶ cm/s | > 10 ×10⁻⁶ cm/s | 0.1 to 10
COc1cccc(CCN(Cc2ncccc2C)Cc2ncccc2C)n1 [Compound I-31, 2-(6-Methoxypyridin-2-yl)-N,N-bis((3-methylpyridin-2-yl)methyl)ethan-1-amine] | 0.01 to 100 nM | 0.01 to 100 nM | > 10 ×10⁻⁶ cm/s | > 10 ×10⁻⁶ cm/s | 0.1 to 10
COc1ccc(CCN(Cc2ncccc2C)Cc2ncccc2C)nc1 [Compound I-32] | ≥ 1000 nM | 0.01 to 100 nM | > 10 ×10⁻⁶ cm/s | > 10 ×10⁻⁶ cm/s | 0.1 to 10
COc1ccnc(CCN(Cc2ncccc2C)Cc2ncccc2C)c1 [Compound I-33] | ≥ 1000 nM | 0.01 to 100 nM | > 10 ×10⁻⁶ cm/s | > 10 ×10⁻⁶ cm/s | 0.1 to 10
Cc1cccnc1CN(CCc1cnc[nH]1)Cc1ncccc1C(C)C [Compound I-34] | 100 to 1000 nM | 0.01 to 100 nM | 5 to 10 ×10⁻⁶ cm/s | > 10 ×10⁻⁶ cm/s | 0.1 to 10
CC(C)c1cccnc1CN(CCc1cnc[nH]1)Cc1ncccc1Cl [Compound I-35] | 100 to 1000 nM | 0.01 to 100 nM | > 10 ×10⁻⁶ cm/s | > 10 ×10⁻⁶ cm/s | 0.1 to 10
Cc1cccnc1CN(CCc1cnc[nH]1)Cc1nccc2ccccc12 [Compound I-36] | 0.01 to 100 nM | 0.01 to 100 nM | < 5 ×10⁻⁶ cm/s | > 10 ×10⁻⁶ cm/s | 10 to 30
Clc1cccnc1CN(CCc1cnc[nH]1)Cc1nccc2ccccc12 [Compound I-37] | 0.01 to 100 nM | 0.01 to 100 nM | 5 to 10 ×10⁻⁶ cm/s | > 10 ×10⁻⁶ cm/s | 0.1 to 10
CC(C)c1cccnc1CN(CCc1cnc[nH]1)Cc1ncccc1C(C)C [Compound I-38] | ≥ 1000 nM | 100 to 1000 nM | 5 to 10 ×10⁻⁶ cm/s | > 10 ×10⁻⁶ cm/s | 0.1 to 10
Clc1cccnc1CN(CCc1cnc[nH]1)Cc1ncccc1-c1ccccc1 [Compound I-39] | ≥ 1000 nM | 0.01 to 100 nM | > 10 ×10⁻⁶ cm/s | > 10 ×10⁻⁶ cm/s | 0.1 to 10
Cc1cccnc1CN(CCc1c[nH]cn1)Cc1nc2cccc(F)c2n1C [Compound I-40] | ≥ 1000 nM | 0.01 to 100 nM | < 5 ×10⁻⁶ cm/s | > 10 ×10⁻⁶ cm/s | 10 to 30
Cc1cccnc1CN(CCc1c[nH]cn1)Cc1nc2ccc(F)cc2n1C [Compound I-41] | 100 to 1000 nM | 0.01 to 100 nM | < 5 ×10⁻⁶ cm/s | > 10 ×10⁻⁶ cm/s | > 30
Cc1cccnc1CN(CCc1c[nH]cn1)Cc1nc2cc(F)ccc2n1C [Compound I-42] | ≥ 1000 nM | 0.01 to 100 nM | < 5 ×10⁻⁶ cm/s | > 10 ×10⁻⁶ cm/s | > 30
Cc1cccnc1CN(CCc1c[nH]cn1)Cc1nc2c(F)cccc2n1C [Compound I-43, N-((4-fluoro-1-methyl-1H-benzo[d]imidazol-2-yl)methyl)-2-(1H-imidazol-4-yl)-N-((3-methylpyridin-2-yl)methyl)ethan-1-amine] | 0.01 to 100 nM | 0.01 to 100 nM | 5 to 10 ×10⁻⁶ cm/s | > 10 ×10⁻⁶ cm/s | 0.1 to 10
Cn1c(CN(CCc2c[nH]cn2)[C@H]2CCCc3cccnc32)nc2cccc(F)c21 [Compound I-44] | 0.01 to 100 nM | 0.01 to 100 nM | 5 to 10 ×10⁻⁶ cm/s | > 10 ×10⁻⁶ cm/s | 0.1 to 10
Cn1c(CN(CCc2c[nH]cn2)[C@H]2CCCc3cccnc32)nc2cc(F)ccc21 [Compound I-45] | ≥ 1000 nM | 0.01 to 100 nM | < 5 ×10⁻⁶ cm/s | > 10 ×10⁻⁶ cm/s | 0.1 to 10
Cc1cccnc1CN(CCC(N)=O)Cc1ncccc1-c1ccccc1 [Compound I-46] | ≥ 1000 nM | 0.01 to 100 nM | > 10 ×10⁻⁶ cm/s | > 10 ×10⁻⁶ cm/s | 0.1 to 10
CC(C)c1cccnc1CN(CCC(N)=O)Cc1ncccc1-c1ccccc1 [Compound I-47] | ≥ 1000 nM | 100 to 1000 nM | > 10 ×10⁻⁶ cm/s | > 10 ×10⁻⁶ cm/s | 0.1 to 10
CC(C)c1cccnc1CN(CCC(N)=O)[C@H]1CCCc2cccnc21 [Compound I-48] | ≥ 1000 nM | 0.01 to 100 nM | < 5 ×10⁻⁶ cm/s | > 10 ×10⁻⁶ cm/s | 0.1 to 10
NC(=O)CCN(Cc1nccc2ccccc12)[C@H]1CCCc2cccnc21 [Compound I-49] | 100 to 1000 nM | 0.01 to 100 nM | 5 to 10 ×10⁻⁶ cm/s | > 10 ×10⁻⁶ cm/s | 0.1 to 10
